Assays:
Format in all cases: cell-based
[1] = test system: latent HIV-1 infection in bulk population of latently infected JLTRG cells; assay: Reactivation of latent HIV-1 in a bulk population of latently infected cells, flow cytometry; details: optimal concentration of each compound, day 57 bulk population, 100,000 viable cells counted
Description: (A) Jurkat cells were infected with an EGFP expressing, replication incompetent reporter virus and the level of productive HIV-1 infection at each indicated time-point was directly assessed by flow cytometric analysis for EGFP expression (untreated; black circles). Levels of initial non-productive and later on latent HIV-1 infection was determined 24 hours following TNF-α stimulation (black squares). The results represent the mean ±S.D. of three independent experiments.
a) Quantification of the HIV-1 reactivating capabilities of test compounds. Following infection, HIV-1 integrates into the cellular genome. Integration is random, although HIV-1 preferentially integrates into euchromatin structures. Latency development can be thus influenced by a multitude of factors that alter gene expression or DNA structure, such as divergent gene expression patterns or the cell cycle stage at the time point of viral integration. Although the reporter cell lines are representative for the majority of latently infected cells and reliably identify most reactivating agents during the screening effort, they can not allow quantification of the capability of the individual compounds to reactivate HIV-1 infection from a diverse population of latently infected cells. To account for the influence that the side of integration of a latent virus can have on a compounds ability to reactivate the virus, a bulk population of latently infected cells (FIG. 7) was established. Following infection of JLTRG cells with HIV-1 NL43, a rapid increase of the level of infection can be observed. On day 3, an average 27% of the cells were productively infected. […] Until day 15, the percentage of productively infected cells rapidly declined to 3% of the overall cell population. At this time point, an additional 5% of the cells were non-productively infected. […] Since 1×10^6 cells were initially infected, and virus mediated inhibition of cell proliferation influences the relative level of infection over time can be excluded, it can be calculated that the latently infected cell population should consist of […] individual latently infected cells. This bulk population of cells allows quantification of the capability of the respective compounds to reactivate latent HIV-1. […] Each compound was titrated over a two-log concentration range to allow for optimal reactivation. The results for the optimal concentration of each compound are depicted in FIG. 7B. […] TNF-α (10 ng/ml) reactivated latent HIV-1 infection in 5% of the cells, whereas the DNA histone deacetylase inhibitors trichostatin A (TSA) and sodium butyrate (NaBu) reactivated latent HIV-1 infection in only 3% or 2.5% of the cells, respectively. To achieve an accurate estimate of the differences in the capability of different agents to reactivate HIV-1 infection it is important to run a sufficiently high number of cells. For this flow cytometry based analysis, 100,000 cells viable per sample were counted.

[2] = test system: HIV-1 Tat / HIV-1 transcription in J89GFP cells; assay: Suppression of TNF-α mediated HIV-1 reactivation in J89GFP cells by Tat inhibitor; details: 10 μM
Description: EGFP expression following TNF-α (1 ng/ml) mediated reactivation of latent HIV-1 infection in J89GFP cells in the presence or absence of Ro24-7429 (10 μM). Following stimulation, area (A+B) represents the total amount of virus produced over a two day period of time, whereas area B represents the amount of virus produced in the presence of Ro24-7429. Results represent the mean ±S.D. of three independent experiments.
The latently HIV-1 infected reporter T cell line J89GFP (Kutsch et al., 2002) was pretreated with the respective compound and then stimulated with various concentrations of TNF-α. As reactivation of latent HIV-1 is dependent on Tat activity, a sufficiently potent Tat inhibitor would suppress HIV-1 reactivation as indicated by […] in EGFP fluorescence. […] Levels of reactivation with respect to the percentage of HIV-1 positive cells, as well as the EGFP MCF intensity were identical. Whereas EGFP expression in TNF-α treated J89GFP in the absence of Ro24-7429 continued to increase until 96 h post stimulation, EGFP MCF peaked after 48 h, reaching 50% of the maximal EGFP MCF seen in the absence of Ro24-7429, and the slowly declined again (FIG. 14). The observed increase of EGFP fluorescence in TNF-α treated J89GFP cells can be described as an invasion kinetics of the first order, whereas the kinetics of EGFP expression following TNF-α mediated reactivation of HIV-1 in the presence of Ro24-7429 can be best described by a Bateman function, that describes onset and elimination of HIV-1 expression. Again, integration of the equation describing each curve allows for the determination of the relative amount of virus being produced in the critical 2 days time frame. Area (A+B) represents the amount of virus produced following reactivation, and Area B represents the amount of virus produced in the presence of Ro24-7429.

[3] = test system: CD28 mediated HIV-1 reactivation in J89GFP cells; assay: Inhibition of activating anti-CD28 antibody (5D10) mediated HIV-1 reactivation in J89GFP cells; details: J89GFP pretreated, then stimulated with 5D10; inhibitors 1 μM
Description: The results are representative for five independent experiments. […] (C) J89GFP cells were pretreated for two hours with the specific ERK-inhibitor U0126 (control: U0124) or the specific p38-inhibitor SB202190 (control: SB202474) and then stimulated with activating anti-CD28 antibody 5D10 (1 μg/ml). Level of reactivation was measured as %-EGFP^+ cells using flow cytometry. Results represent the mean ±S.D. of three independent experiments.

JEGFP cells = details: 10,000 JEGFP cells/well, 384-well plate, increasing amounts of compound
Description: JEGFP cells were seeded at a cell density of 1×10^4 cells/well into a 384-well plate and left untreated (Control) or treated with a low concentration of daunorubicin (0.0001 μg/ml). EGFP fluorescence as a measure of cell proliferation was then determined over a period of four days.
Influence of altered cell proliferation, cell viability and compound auto-fluorescence on EGFP fluorescence intensity. […] For example, compounds that have fluorochrome characteristics in the same excitation and emission range as EGFP can unspecifically increase the fluorescence signal and can cause false positive hits. On the other hand, too high concentrations of compounds that can reactivate latent HIV-1 infection, but within the chosen concentration range, either inhibit cell proliferation or decrease cell viability can result in false negative hits. […] Compounds that unspecifically increase EGFP expression in the latently infected LWI cells due to their fluorochrome characteristics also increase EGFP fluorescence in these cells, and can be detected as false positive hits. […] As JEGFP cells divide every 24 h and EGFP fluorescence intensity, when measured by plate based fluorometry, directly correlates with the cell density (FIG. 5), any influence of the tested compound on cell proliferation or cell viability can be immediately indicated by a drop in EGFP fluorescence. […]

## CCCC(=O)[O-].[Na+] [NaBu, sodium butyrate]
[1]
  cells in which latent HIV-1 infection was reactivated: 2.5%

## CNC1=Nc2ccc(Cl)cc2C(c2ccc[nH]2)=NC1 [Ro24-7429]
[2]; TNF-α 1 ng/ml, first 24 h
  influence on the level of HIV-1 expression during the first 24 h: had no influence on the level of HIV-1 expression
[2]; TNF-α 1 ng/ml, initial 2 days period, from integration of EGFP curves
  inhibition of virus production: 20%
[2]; TNF-α 1 ng/ml, peak after 48 h
  peak EGFP MCF relative to maximal EGFP MCF in the absence of inhibitor: 50%
[2]; in the presence of 1 ng/ml TNF-α
  suppression of reactivation of latent HIV-1: not capable of suppressing reactivation of latent HIV-1 infection

## Oc1ccc(-c2nc(-c3ccncc3)c(-c3ccc(F)cc3)[nH]2)cc1 [SB202190]
[3]
  effect on HIV-1 reactivation by activating anti-CD28 antibody: efficiently abrogated the activating effect of the antibody and blocked HIV-1 reactivation

## CC(/C=C/C(=O)NO)=C\[C@@H](C)C(=O)c1ccc(N(C)C)cc1 [TSA, trichostatin A]
[1]
  cells in which latent HIV-1 infection was reactivated: 3%

## N#CC(=C(/N)Sc1ccccc1N)/C(C#N)=C(\N)Sc1ccccc1N [U0126]
[3]
  effect on HIV-1 reactivation by activating anti-CD28 antibody: efficiently abrogated the activating effect of the antibody and blocked HIV-1 reactivation

## COc1cccc2c1C(=O)c1c(O)c3c(c(O)c1C2=O)C[C@@](O)(C(C)=O)C[C@@H]3O[C@H]1C[C@H](N)[C@H](O)[C@H](C)O1 [daunorubicin]
JEGFP cells
  EGFP expression as measure of cell proliferation/viability: sharp drop in EGFP expression

## CC(=O)O[C@@]12C[C@@H](C)[C@@]3(O)[C@@H](C=C(CO)C[C@]4(O)C(=O)C(C)=C[C@@H]34)[C@@H]1C2(C)C [prostratin]
[1]
  cells in which latent HIV-1 infection was reactivated: 6%

From patent publication US20080118494A1, “Compositions For Detection Of Latent Hiv Reactivation And Methods Of Using The Same” (priority 2004, published 2008)
